Source: ChEMBL document CHEMBL1142261 (Bioorg Med Chem, 2008)
Activity calls are given as the source filed them. The calls are words filed in the database; no cut-off is given here. Peptide text beside a SMILES is read from it. * marks the point of attachment. Isovaleryl = CC(C)CC(=O)*; Propionyl = CCC(=O)*; Bz = O=C(c1ccccc1)*

How the values were obtained:
[1] = biological target: T1, Nociceptin receptor (Homo sapiens, UniProt P41146); experiment: Displacement of [3H]nociceptin from human ORL1-Galpha fusion receptor in COS7 cells; type: cell-based, COS-7
T1 sequence (P41146 whole entry, the tested form may be a part): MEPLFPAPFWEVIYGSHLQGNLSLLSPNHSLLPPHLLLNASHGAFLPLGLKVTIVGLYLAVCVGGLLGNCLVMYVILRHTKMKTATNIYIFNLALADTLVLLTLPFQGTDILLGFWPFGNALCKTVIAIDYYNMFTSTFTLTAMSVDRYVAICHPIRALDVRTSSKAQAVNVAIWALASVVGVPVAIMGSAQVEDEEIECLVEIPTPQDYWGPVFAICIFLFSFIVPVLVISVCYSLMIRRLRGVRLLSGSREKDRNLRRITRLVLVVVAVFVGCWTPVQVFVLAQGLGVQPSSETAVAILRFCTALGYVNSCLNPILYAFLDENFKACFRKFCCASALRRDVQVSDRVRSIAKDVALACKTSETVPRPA

[2] = biological target: T1, Nociceptin receptor; experiment: Activity at human ORL1-Galpha fusion receptor in COS7 cells assessed as stimulation of [35S]GTP-gamma-S binding; type: functional, cell-based, COS-7
[3] = biological target: Nociceptin receptor (Mus musculus) (UniProt P35377); experiment: Agonist activity at ORL1[…] receptor in ICR mouse vas deferens assessed as inhibition of electrically-stimulated muscle contraction at 10 uM; type: functional, tissue-based; design: scale not given: the % may be the effect or the level left
Nociceptin receptor (Mus musculus), sequence (P35377 whole entry): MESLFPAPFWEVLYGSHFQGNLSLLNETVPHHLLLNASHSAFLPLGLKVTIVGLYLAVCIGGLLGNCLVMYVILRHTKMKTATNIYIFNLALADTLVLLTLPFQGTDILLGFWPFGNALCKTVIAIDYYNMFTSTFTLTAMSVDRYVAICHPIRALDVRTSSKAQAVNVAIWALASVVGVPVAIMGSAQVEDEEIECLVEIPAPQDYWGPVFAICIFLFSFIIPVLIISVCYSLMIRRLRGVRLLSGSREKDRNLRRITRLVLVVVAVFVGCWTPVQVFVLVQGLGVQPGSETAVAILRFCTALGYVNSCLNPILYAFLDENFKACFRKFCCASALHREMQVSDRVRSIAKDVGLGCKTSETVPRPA

[4] = biological target: Nociceptin receptor (Mus musculus) (UniProt P35377); experiment: Antagonist activity at ORL1[…] receptor in ICR mouse vas deferens assessed as inhibition of electrically-stimulated muscle contraction; type: functional, tissue-based
[5] = biological target: Nociceptin receptor (Mus musculus) (UniProt P35377); experiment: Antagonist activity at ORL1[…] receptor in ICR mouse vas deferens assessed as inhibition of electrically-stimulated muscle contraction at 10 uM; type: functional, tissue-based; design: scale not given: the % may be the effect or the level left

| Compound | IC50 [1] | EC50 [2] | further results |
| --- | --- | --- | --- |
| CCC(CC)C(=O)N[C@@H](CCCN=C(N)N)C(=O)N[C@@H](Cc1ccc(O)cc1)C(=O)N[C@@H](Cc1ccc(O)cc1)C(=O)N[C@@H](CCCN=C(N)N)C(=O)N[C@H](C(=O)N[C@@H](CCCCN)C(N)=O)[C@@H](C)CC | 92.6 nM | – | – |
| CC[C@H](C)[C@H](NC(=O)[C@H](CCCNC(=N)N)NC(=O)[C@H](Cc1ccc(O)cc1)NC(=O)[C@H](Cc1ccc(O)cc1)NC(=O)[C@H](CCCNC(=N)N)NC(=O)C(C)(C)C)C(=O)N[C@@H](CCCCN)C(N)=O | 14.9 nM | 97.9 nM | – |
| CCC(=O)N[C@@H](CCCNC(=N)N)C(=O)N[C@@H](Cc1ccc(O)cc1)C(=O)N[C@@H](Cc1ccc(O)cc1)C(=O)N[C@@H](CCCNC(=N)N)C(=O)N[C@H](C(=O)N[C@@H](CCCCN)C(N)=O)[C@@H](C)CC | 1.7 nM | 27.6 nM | – |
| CC[C@H](C)[C@H](NC(=O)[C@H](CCCN=C(N)N)NC(=O)[C@H](Cc1ccc(O)cc1)NC(=O)[C@H](Cc1ccc(O)cc1)NC(=O)[C@H](CCCN=C(N)N)NC(=O)C(C)(C)CC)C(=O)N[C@@H](CCCCN)C(N)=O | 45.5 nM | 17.7 nM | – |
| CC[C@H](C)[C@H](NC(=O)[C@H](CCCN=C(N)N)NC(=O)[C@H](Cc1ccc(O)cc1)NC(=O)[C@H](Cc1ccc(O)cc1)NC(=O)[C@H](CCCN=C(N)N)NC(C)=O)C(=O)N[C@@H](CCCCN)C(N)=O | – | – | Activity [3]: 40% |
| CC[C@H](C)[C@H](NC(=O)[C@H](CCCNC(=N)N)NC(=O)[C@H](Cc1ccc(O)cc1)NC(=O)[C@H](Cc1ccc(O)cc1)NC(=O)[C@H](CCCNC(=N)N)NC(=O)CC(C)C)C(=O)N[C@@H](CCCCN)C(N)=O | 7.42 nM | – | – |
| CC[C@H](C)[C@H](NC(=O)[C@H](CCCNC(=N)N)NC(=O)[C@H](Cc1ccc(O)cc1)NC(=O)[C@H](Cc1ccc(O)cc1)NC(=O)[C@H](CCCNC(=N)N)NC(=O)c1ccccc1)C(=O)N[C@@H](CCCCN)C(N)=O | 14.7 nM | 18.3 nM | – |
| CCC(C)C(=O)N[C@@H](CCCNC(=N)N)C(=O)N[C@@H](Cc1ccc(O)cc1)C(=O)N[C@@H](Cc1ccc(O)cc1)C(=O)N[C@@H](CCCNC(=N)N)C(=O)N[C@H](C(=O)N[C@@H](CCCCN)C(N)=O)[C@@H](C)CC (stereo partly drawn) | 21.3 nM | 52.7 nM | – |
| CCCCC(=O)N[C@@H](CCCN=C(N)N)C(=O)N[C@@H](Cc1ccc(O)cc1)C(=O)N[C@@H](Cc1ccc(O)cc1)C(=O)N[C@@H](CCCN=C(N)N)C(=O)N[C@H](C(=O)N[C@@H](CCCCN)C(N)=O)[C@@H](C)CC | 5.67 nM | – | – |
| CC[C@H](C)[C@H](NC(=O)[C@H](CCCNC(=N)N)NC(=O)[C@H](Cc1ccc(O)cc1)NC(=O)[C@H](Cc1ccc(O)cc1)NC(=O)[C@H](CCCNC(=N)N)NC(=O)C(C)C)C(=O)N[C@@H](CCCCN)C(N)=O | 2.81 nM | 44.5 nM | – |
| CCCC(C)C(=O)N[C@@H](CCCNC(=N)N)C(=O)N[C@@H](Cc1ccc(O)cc1)C(=O)N[C@@H](Cc1ccc(O)cc1)C(=O)N[C@@H](CCCNC(=N)N)C(=O)N[C@H](C(=O)N[C@@H](CCCCN)C(N)=O)[C@@H](C)CC (stereo partly drawn) | 47.3 nM | 23.8 nM | – |
| CC(C)C[C@H](NC(=O)[C@H](CCCCN)NC(=O)[C@H](CCCNC(=N)N)NC(=O)[C@H](C)NC(=O)[C@H](CO)NC(=O)[C@H](CCCCN)NC(=O)[C@H](CCCNC(=N)N)NC(=O)[C@H](C)NC(=O)CNC(=O)[C@@H](NC(=O)[C@H](Cc1ccccc1)NC(=O)CNC(=O)CNC(=O)[C@@H](N)Cc1ccccc1)[C@@H](C)O)C(=O)N[C@@H](C)C(=O)N[C@@H](CC(N)=O)C(=O)N[C@@H](CCC(N)=O)C(=O)O | – | – | ED50 [4]: 19.3 nM |
| CC[C@H](C)[C@H](NC(=O)[C@H](CCCN=C(N)N)NC(=O)[C@H](Cc1ccc(O)cc1)NC(=O)[C@H](Cc1ccc(O)cc1)NC(=O)[C@H](CCCN=C(N)N)NC=O)C(=O)N[C@@H](CCCCN)C(N)=O | 0.66 nM | 23.3 nM | – |
| CC[C@H](C)[C@H](NC(=O)[C@H](CCCNC(=N)N)NC(=O)[C@H](Cc1ccc(O)cc1)NC(=O)[C@H](Cc1ccc(O)cc1)NC(=O)[C@@H](N)CCCNC(=N)N)C(=O)N[C@@H](CCCCN)C(N)=O | 218 nM | – | – |
| CCC(=O)N[C@@H](CCCNC(=N)N)C(=O)N[C@@H](Cc1ccccc1)C(=O)N[C@@H](Cc1ccc(O)cc1)C(=O)N[C@@H](CCCNC(=N)N)C(=O)N[C@H](C(=O)N[C@@H](CCCCN)C(N)=O)[C@@H](C)CC (Propionyl-RFYRIK-NH2) | – | – | Activity [5]: 90% |
| CC[C@H](C)[C@H](NC(=O)[C@H](CCCN=C(N)N)NC(=O)[C@H](Cc1ccc(O)cc1)NC(=O)[C@H](Cc1ccc(O)cc1)NC(=O)[C@H](CCCN=C(N)N)NC(=O)CC(C)(C)C)C(=O)N[C@@H](CCCCN)C(N)=O | 16.9 nM | 46.5 nM | – |
| CC[C@H](C)[C@H](NC(=O)[C@H](CCCN=C(N)N)NC(=O)[C@H](Cc1ccc(O)cc1)NC(=O)[C@H](Cc1ccc(O)cc1)NC(=O)[C@H](CCCN=C(N)N)NC(=O)C12CC3CC(CC(C3)C1)C2)C(=O)N[C@@H](CCCCN)C(N)=O | 3.42 nM | 19.2 nM | – |
| CC[C@H](C)[C@H](NC(=O)[C@H](CCCNC(=N)N)NC(=O)[C@H](Cc1ccc(O)cc1)NC(=O)[C@H](Cc1ccccc1)NC(=O)[C@H](CCCNC(=N)N)NC(=O)CC(C)C)C(=O)N[C@@H](CCCCN)C(N)=O (Isovaleryl-RFYRIK-NH2) | – | – | Activity [4]: Dose-dependent effect |
| CC[C@H](C)[C@H](NC(=O)[C@H](CCCNC(=N)N)NC(=O)[C@H](Cc1ccc(O)cc1)NC(=O)[C@H](Cc1ccccc1)NC(=O)[C@H](CCCNC(=N)N)NC(=O)c1ccccc1)C(=O)N[C@@H](CCCCN)C(N)=O (Bz-RFYRIK-NH2) | – | – | Activity [5]: 90% |
| CCCC(=O)N[C@@H](CCCNC(=N)N)C(=O)N[C@@H](Cc1ccc(O)cc1)C(=O)N[C@@H](Cc1ccc(O)cc1)C(=O)N[C@@H](CCCNC(=N)N)C(=O)N[C@H](C(=O)N[C@@H](CCCCN)C(N)=O)[C@@H](C)CC | 1.86 nM | 32.4 nM | – |
| CC[C@H](C)[C@H](NC(=O)[C@H](CCCNC(=N)N)NC(=O)[C@H](Cc1ccc(O)cc1)NC(=O)[C@H](Cc1ccccc1)NC(=O)[C@@H](N)CCCNC(=N)N)C(=O)N[C@@H](CCCCN)C(N)=O | – | – | Activity [4]: inactive |
| CCCCCC(=O)N[C@@H](CCCNC(=N)N)C(=O)N[C@@H](Cc1ccc(O)cc1)C(=O)N[C@@H](Cc1ccc(O)cc1)C(=O)N[C@@H](CCCNC(=N)N)C(=O)N[C@H](C(=O)N[C@@H](CCCCN)C(N)=O)[C@@H](C)CC | 21.7 nM | – | – |
